{
  "source": "patent US20100280084A1",
  "about": "“Cyp1B1 Genotype” (Government of the US, as represented by the Secret ary, …, priority 2005, published 2010)",
  "key": {"CYP1B1 [1]": {"biological_target": "T1, CYP1B1 (Homo sapiens, UniProt Q16678)", "T1 sequence (Q16678 1-543)": "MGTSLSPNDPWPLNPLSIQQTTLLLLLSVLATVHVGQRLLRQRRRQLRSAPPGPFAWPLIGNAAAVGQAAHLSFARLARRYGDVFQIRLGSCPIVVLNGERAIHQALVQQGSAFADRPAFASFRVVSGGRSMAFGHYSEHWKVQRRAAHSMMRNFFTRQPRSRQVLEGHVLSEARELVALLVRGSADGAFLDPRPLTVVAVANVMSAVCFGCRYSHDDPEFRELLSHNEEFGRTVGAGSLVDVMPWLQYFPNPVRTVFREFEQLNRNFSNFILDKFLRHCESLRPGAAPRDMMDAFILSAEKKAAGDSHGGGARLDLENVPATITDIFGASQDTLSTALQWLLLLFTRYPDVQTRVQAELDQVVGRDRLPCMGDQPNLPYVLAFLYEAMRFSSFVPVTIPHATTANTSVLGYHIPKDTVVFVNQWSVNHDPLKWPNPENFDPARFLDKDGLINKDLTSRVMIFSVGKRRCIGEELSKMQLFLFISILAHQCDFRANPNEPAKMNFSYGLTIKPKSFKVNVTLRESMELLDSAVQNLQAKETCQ", "conditions": "in vitro studies (reference 16); cited from earlier work"}, "CYP1B1 [2]": {"biological_target": "T1, CYP1B1", "conditions": "previous preclinical studies (references 2, 3); cited from earlier work"}, "[3]": {"tested_on": "androgen-independent prostate cancer (AIPC)", "assay": "Survival by CYP1B1*3 genotype in men with AIPC treated with docetaxel (Kaplan-Meier)", "assay_type": "in vivo, human", "conditions": "for overall median survival: docetaxel 30 mg/m^2 1-hour i.v. weekly for 3 weeks, 1-week rest", "description": "FIG. 1 depicts Kaplan-Meier curves of overall survival (o-CYP1B1*3; *-CYP1B1*1/*1 and CYP1B1*1/*3) (A) and overall progression free survival (B) in men with prostate cancer treated with docetaxel as a function of CYP1B1*3 genotype. All patients received docetaxel as a 1-hour intravenous infusion at a dose of 30 mg/m^2 in cycles of once every week for 3 consecutive weeks, followed by a 1-week rest period (n=25). DNA was extracted from a […] using a QiaBlood extraction kit (Qiagen, Valencia, Calif.) and stored at 4° C. The CYP1B1*3 alleles were analyzed by direct sequencing. The primers used for sequencing and amplification of the variant were as follows: F4-[…]; R4-[…]; F5-[…]; R5-[…]. A 50-μl reaction was prepared for polymerase chain reaction (PCR) amplification using primers F4 and R4. The reaction consisted of 1×PCR buffer, 2 mM of each of the four deoxynucleotidetriphosphates (dNTPs), 1.5 mM magnesium chloride, and 1 unit of Platinum Taq DNA polymerase. PCR conditions were: 94° C. for 5 minutes, followed by 40 cycles of 94° C. for 30 seconds, 66° C. for 30 seconds, and 72° C. for 30 seconds, with a final 7-minute cycle at 72° C. Direct nucleotide sequencing PCR was conducted using the Big Dye Terminator Cycle Sequencing Ready Reaction kit V1.1 on an ABI Prism 310 Genetic Analyzer (Applied BioSystems, Foster City, Calif.).\nThe CYP1B1 genotypes on germline DNA obtained from 25 men with AIPC treated with docetaxel (Aventis Pharmaceuticals, Bridgewater, N.J.) were retrospectively evaluated. The subjects were administered docetaxel intravenously over 1-hour at a dose of 30 mg/m^2 in whom detailed survival data were available (Table 1). Inclusion and exclusion criteria have been previously published (12). The study protocol was approved by the Institutional Review Board (Bethesda, Md.), and all patients provided written informed consent. DNA was isolated from whole blood and variants in the CYP1B1 gene were analyzed by direct nucleotide sequencing (see Legend to FIG. 1). The association between genotypes and progression-free survival and overall survival was determined by the Kaplan-Meier method using a two-tailed log rank test. The homozygous wild-type (CYP1B1*1/*1) and heterozygous variant (CYP1B1*1/*3) genotypes were pooled in the analysis on the basis of similarity of outcomes. The associated p-value was adjusted to be two times the unadjusted value to account for the two implicit comparisons made in determining the desirability of combining groups. Progression was censored at the off study date if a patient was removed for toxicity or another reason."}, "[4]": {"tested_on": "transfected Chinese hamster ovary cells", "conditions": "reversible by chemical inhibition (references 2, 3); cited from earlier work"}, "[5]": {"assay": "Docetaxel clearance as a function of CYP1B1*3 genotype in 23 patients", "conditions": "human, in vivo, P=0.39", "description": "To exclude the possibility that the observed decreased survival time for subjects carrying the CYP1B1*3/*3 variant was the result of altered exposure to docetaxel, the pharmacokinetic data generated in a previous study (15) in 23 patients treated with docetaxel as a function of CYP1B1*3 genotype was analyzed."}},
  "data": [
    {"smiles": "CC(=O)O[C@@]12CO[C@@H]1C[C@H](O)[C@@]1(C)C(=O)[C@H](O)C3=C(C)[C@@H](OC(=O)[C@H](O)[C@@H](NC(=O)OC(C)(C)C)c4ccccc4)C[C@@](O)([C@@H](OC(=O)c4ccccc4)[C@H]21)C3(C)C", "note": "[docetaxel]", "values": [
      {"measurement": "metabolism by CYP1B1", "setting": "CYP1B1 [1]", "value": "not directly metabolized by CYP1B1"},
      {"measurement": "inhibition of CYP1B1-mediated ethoxyresorufin O-deethylation", "setting": "CYP1B1 [2]", "value": "competitively inhibits"},
      {"measurement": "overall median survival", "setting": "[3]; 5 patients homozygote variant (CYP1B1*3/*3)", "value": 7.5, "unit": "months"},
      {"measurement": "overall median survival", "setting": "[3]; 7 wild type plus 13 heterozygotes (CYP1B1*1/*1 and *1/*3 pooled)", "value": 15.3, "unit": "months"},
      {"measurement": "progression free survival", "setting": "[3]; CYP1B1*3/*3 variant, P=0.13 versus pooled genotypes", "value": 3.3, "unit": "months"},
      {"measurement": "decrease in median survival time", "setting": "[3]; CYP1B1*3/*3 versus pooled wild type and heterozygotes, P=0.012", "value": 7.8, "unit": "months"},
      {"measurement": "progression free survival", "setting": "[3]; pooled wild type and heterozygous genotypes, P=0.13 versus CYP1B1*3/*3", "value": 6.2, "unit": "months"},
      {"measurement": "effect of CYP1B1 overexpression on cellular sensitivity to docetaxel", "setting": "[4]", "value": "docetaxel resistance"},
      {"measurement": "clearance", "setting": "[5]; patients homozygous for the variant allele, 95% CI 26.9 to 37.0 L/h", "value": 533, "unit": "mL/min"},
      {"measurement": "clearance", "setting": "[5]; patients homozygous or heterozygous for the wild-type allele, 95% CI 27.5 to 48.9 L/h", "value": 637, "unit": "mL/min"}
    ]}
  ]
}
